Test results: patent US20240391931A1 (Bristol-Myers Squibb Company, priority 2021, published 2024)
Structures can show the parent of a compound that is named as a salt. Where two headings read alike, the source gives them in different places.

Key:
Ba/F3 parental cells = experiment: Cellular proliferation in Ba/F3 parental (IL3-dependent) cells; type: cell-based, murine; conditions: Mus musculus, BaF3
Protocol: (§1) Engineered lines expressing HER2YVMA and HER2 WT were prepared in HEK293 (human embryonic kidney cells), Ba/F3 (Interleukin 3 (IL3)-dependent murine pro B cell line), and BEAS2B (primary immortalized human bronchial epithelial cell line). Ba/F3, BEAS2B, and HEK293 cells were obtained from the American Type Culture Collection (ATCC, Manassas, VA). Parental Ba/F3 cells were grown in suspension in complete RPMI 1640 supplemented with 10% FBS and 1% P/S and 10 ng/ml interleukin 3 (IL3, Sigma-Aldrich). Hek293 and BEAS2B cells were grown as monolayers in DMEM supplemented with 10% FBS and 1% P/S. All cells were maintained and propagated in a humidified 5% CO2 incubator at 37° C.
(§2) Cell proliferation in non-adherent cells was investigated in Ba/F3 parental (IL3-dependent) and in the two IL3 independent cell clones tranduced to express mutant HER2 protein containing the YVMA insertion (Ba/F3 HER2YVMA). Cells were plated in DMEM supplemented with 10% FBS, 1% P/S, and 10 ng/ml IL3 (for parental Ba/F3 only) in 96-well white clear-bottom tissue culture plates (Costar, Sigma-Aldrich) at a starting cell density of 7500 cells. An 8-point standard curve with varying cell densities (starting at 100,000 cells and serially diluting down 2-fold) was prepared for each cell line and read after plating. Compound solutions were prepared in serum free media, and cells were treated as described above for adherent cells. Cell viability was determined by CellTiter Glo (Promega, Madison, WI) after 72 h. The results were converted to cell numbers using a standard curve; growth inhibition (GI50 values) were determined by Graph Pad Prism.
(§3) The results of these experiments show the ability of compounds to inhibit cell growth in HER2 dependent cell lines and a control cell line (Ba/F3 parental) are depicted in Table 4 in the columns titled “G150 (nM)”. Ba/F3 parental results fall under the heading “Ba/F3 parental-G150”, and Ba/F3 HER2YVMA fall under the heading “Ba/F3 YVMA-G150”.

EGFR = EGFR (Homo sapiens, UniProt P00533); experiment: EGFR occupancy in N87 cells; type: cell-based; set-up: endogenous in cells; host or cells: N87
Sequence of EGFR (P00533 25-1210): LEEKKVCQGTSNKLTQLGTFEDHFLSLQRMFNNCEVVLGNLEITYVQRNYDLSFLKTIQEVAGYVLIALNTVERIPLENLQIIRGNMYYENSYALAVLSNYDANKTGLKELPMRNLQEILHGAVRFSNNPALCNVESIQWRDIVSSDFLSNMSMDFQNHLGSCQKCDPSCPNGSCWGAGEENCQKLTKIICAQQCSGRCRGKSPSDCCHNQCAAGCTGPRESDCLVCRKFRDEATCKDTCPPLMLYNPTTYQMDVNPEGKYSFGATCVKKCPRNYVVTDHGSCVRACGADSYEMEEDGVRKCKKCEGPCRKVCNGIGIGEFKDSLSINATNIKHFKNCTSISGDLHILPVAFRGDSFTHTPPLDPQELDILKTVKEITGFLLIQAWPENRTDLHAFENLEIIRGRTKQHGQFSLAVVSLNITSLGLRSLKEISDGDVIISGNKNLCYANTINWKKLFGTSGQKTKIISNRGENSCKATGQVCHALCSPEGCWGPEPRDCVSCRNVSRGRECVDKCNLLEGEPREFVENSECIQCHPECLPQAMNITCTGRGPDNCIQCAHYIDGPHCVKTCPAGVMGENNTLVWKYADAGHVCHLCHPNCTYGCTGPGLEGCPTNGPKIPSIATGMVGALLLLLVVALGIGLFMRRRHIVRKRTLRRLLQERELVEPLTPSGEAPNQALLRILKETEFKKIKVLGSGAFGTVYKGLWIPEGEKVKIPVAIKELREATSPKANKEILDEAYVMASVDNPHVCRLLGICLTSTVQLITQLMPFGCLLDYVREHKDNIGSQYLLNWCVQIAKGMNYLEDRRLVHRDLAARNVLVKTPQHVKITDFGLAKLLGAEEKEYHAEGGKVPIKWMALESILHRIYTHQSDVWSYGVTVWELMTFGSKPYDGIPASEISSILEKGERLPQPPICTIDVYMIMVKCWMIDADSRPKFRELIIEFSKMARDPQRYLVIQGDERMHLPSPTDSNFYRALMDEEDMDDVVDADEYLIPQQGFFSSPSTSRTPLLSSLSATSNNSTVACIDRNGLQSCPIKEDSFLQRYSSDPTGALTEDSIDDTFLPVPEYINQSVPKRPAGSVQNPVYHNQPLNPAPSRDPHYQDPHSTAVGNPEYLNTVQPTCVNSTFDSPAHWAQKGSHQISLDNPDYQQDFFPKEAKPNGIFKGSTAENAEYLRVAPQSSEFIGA
Protocol: In order to assess free EGFR protein, a biotinylated probe was utilized as described for HER2 occupancy. N87 cells were plated, treated, and lysed as described for HER2 occupancy method. After treatment, the cells were washed three times with cold PBS, lysed at room temperature for 1 hr in modified occupancy lysis buffer (prepared as described in section titled “HER2 Occupancy Assay”). Lysates were stored at −70° C. until further analysis. For determination of % occupancy, lysates were loaded into duplicate plates of the phospho (Tyr 1068)/total EGFR whole cell lysate kit (Meso-Scale Discovery) and incubated overnight. Plates were washed and incubated with either EGFR-sulfoTag (1:50, Meso Scale Discovery) or Strep-Sulfo Tag (1:1000, Meso Scale Discovery), for detection of free and total EGFR, respectively. BSA control spots included in MSD plates were used to subtract non-specific signal. A standard curve of untreated cells in serial dilution was included in each plate to convert streptavidin and total EGFR MSD signals into free EGFR and total EGFR. Free EGFR was normalized to total EGFR for each sample. Data, reported as % […] control, was fitted using a sigmoidal curve analysis program (Graph Pad Prism version 6) with variable Hill slope to determine EC50 values. The results are provided in Table 4, under column titled “N87-EGFR Occ”. EGFR Occ is the concentration of test compound at which 50% of EGFR is irreversible bound.

HER2 = molecular target: T1, HER2 (Homo sapiens, UniProt P04626); experiment: HER2 occupancy assay in N87 cells; type: cell-based; conditions: concentration at which 50% of HER2 is irreversible bound, read-out: N87 HER2 Occ
T1 construct: BT474 and N87 cell lines which endogenously overexpress the HER2 wildtype (WT) protein; endogenous in cells; host or cells: BT474, N87
T1 sequence (P04626 23-1255): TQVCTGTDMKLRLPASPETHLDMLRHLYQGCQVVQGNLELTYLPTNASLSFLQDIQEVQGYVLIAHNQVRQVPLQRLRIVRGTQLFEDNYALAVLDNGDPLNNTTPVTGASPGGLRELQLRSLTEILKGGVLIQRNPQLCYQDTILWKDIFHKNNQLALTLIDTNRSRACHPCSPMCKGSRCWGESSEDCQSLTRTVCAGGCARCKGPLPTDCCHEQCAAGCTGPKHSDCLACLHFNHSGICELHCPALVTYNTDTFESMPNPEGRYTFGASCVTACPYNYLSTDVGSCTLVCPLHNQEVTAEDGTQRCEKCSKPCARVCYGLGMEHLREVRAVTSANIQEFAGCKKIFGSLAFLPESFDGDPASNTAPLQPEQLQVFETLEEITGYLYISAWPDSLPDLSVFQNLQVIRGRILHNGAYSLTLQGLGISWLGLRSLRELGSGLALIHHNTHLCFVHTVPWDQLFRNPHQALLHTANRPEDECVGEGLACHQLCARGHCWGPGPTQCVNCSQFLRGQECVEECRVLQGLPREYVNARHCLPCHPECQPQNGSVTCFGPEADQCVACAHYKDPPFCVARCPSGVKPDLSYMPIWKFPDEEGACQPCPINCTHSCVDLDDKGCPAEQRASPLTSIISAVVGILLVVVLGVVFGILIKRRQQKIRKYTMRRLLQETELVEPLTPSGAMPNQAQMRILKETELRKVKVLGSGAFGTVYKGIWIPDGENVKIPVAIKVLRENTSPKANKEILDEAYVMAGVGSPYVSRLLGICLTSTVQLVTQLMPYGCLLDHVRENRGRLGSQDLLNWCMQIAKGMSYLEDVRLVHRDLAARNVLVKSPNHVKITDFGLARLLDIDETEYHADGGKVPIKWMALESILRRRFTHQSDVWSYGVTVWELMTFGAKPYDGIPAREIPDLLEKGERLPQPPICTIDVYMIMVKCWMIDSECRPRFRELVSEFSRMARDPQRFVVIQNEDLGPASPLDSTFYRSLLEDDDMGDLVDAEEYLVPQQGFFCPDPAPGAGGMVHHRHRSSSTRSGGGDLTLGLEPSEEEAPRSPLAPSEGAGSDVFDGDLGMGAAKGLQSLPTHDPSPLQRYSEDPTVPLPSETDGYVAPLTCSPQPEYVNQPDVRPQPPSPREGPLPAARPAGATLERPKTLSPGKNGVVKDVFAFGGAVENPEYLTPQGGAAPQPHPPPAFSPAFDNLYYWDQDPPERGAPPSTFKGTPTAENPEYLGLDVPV
Protocol: In order to assess free HER2 protein, a biotinylated probe was utilized. BT474, N87, and Ba/F3-HER2YVMA cells were treated with test compound as described for HER2 signaling. After compound treatment, cells were washed three times with cold phosphate buffer saline (PBS, Life Technologies, Carlsbad, CA), and lysed in modified occupancy lysis buffer prepared with an irreversible biotinylated tool compound (1 μM) in 25 mM Tris pH 7.5, 150 mM NaCl, 1% Triton, and supplemented with cOmplete, EDTA-free Protease inhibitor cocktail (Roche), Phosphatase Inhibitor Cocktails 2 and 3 (Sigma-Aldrich), and 1 mM PMSF (Sigma-Aldrich).
To determine % occupancy, lysates were loaded into duplicate plates of the phospho (Tyr1248)/total ErbB2 whole cell lysate MSD kit (Meso-Scale Discovery) and incubated overnight. Plates were washed and incubation with either HER2-sulfoTag (1:50, Meso Scale Discovery) or Strep-Sulfo Tag (1:1000, Meso Scale Discovery), for detection of […]. A standard curve of untreated cells in serial dilution was included in each plate to independently fit streptavidin (Free HER2) and total HER2 MSD signals; non-specific signal (BSA control spots) was subtracted from each well. Free HER2 was then normalized by total HER2 for each sample. The results are reported as % DMSO control. The normalized data was fitted using a sigmoidal curve analysis program (Graph Pad Prism version 6) with variable Hill slope to determine EC50 values. The results are provided in Table 4, under columns titled “BT474-HER2 Occ”, “N87-HER2 Occ”, and “Ba/F3 YVMA-HER2 Occ”. HER2 Occ is the concentration of test compound at which 50% of HER2 is irreversible bound.

Ba/F3 HER2YVMA cells = experiment: Cellular proliferation in Ba/F3 HER2YVMA cells; type: cell-based, murine; conditions: Mus musculus, BaF3, read-out: Ba/F3 YVMA GI50
Protocol: as §1
To generate Ba/F3, BEAS2B, and Hek-293 cells engineered with lentivirus to express HER2 WT or HER2YVMA, the cells were transduced with lentiviruses at multiplicity of infection (MOI) of 1 or 10; transduced cells were selected and maintained with G418 ([…]) (Geneticin, Life Technologies, Carlsbad, CA). Ba/F3 engineered cells were subjected to gradual withdrawal of interleukin 3 (IL-3, Sigma-Aldrich). After selection, IL3 independent Ba/F3 HER2YVMA, and BEAS2B HER2YVMA cells were cloned by limiting dilution. Hek293 HER2YVMA cells were used as pool. HER2 and phospho HER2 levels were confirmed by flow cytometery and immunoassay (MSD, Meso-Scale Discovery, Rockville, Maryland).
as §2, §3

[1] = N87 cells, concentration at which 50% of EGFR is irreversible bound, read-out: N87 EGFR Occ

For `Cc1ccc(Oc2ccc(Nc3ncnc4sc5c(c34)CCN(C(=O)/C=C/CN(C)C)C5)cc2C)cn1` [Compound 8, (E)-4-(Dimethylamino)-1-(4-((3-methyl-4-((6-methylpyridin-3-yl)oxy)phenyl)amino)-5,6-dihydropyrido[4′,3′:4,5]thieno[2,3-d]pyrimidin-7(8H)-yl)but-2-en-1-one], the GI50 (Ba/F3 parental cells) was 1 to 10 µM, the EC50 (EGFR; [1]) was < 100 nM and the EC50 (HER2) was < 100 nM. For the same compound, the GI50 (Ba/F3 HER2YVMA cells) was < 100 nM.
For `Cc1cc(Nc2ncnc3sc4c(c23)CCN(C(=O)/C=C/CN2CCOCC2)C4)ccc1Oc1ccc2ncnn2c1` [Compound 12], the EC50 (EGFR; [1]) was > 1000 nM and the EC50 (HER2) was < 100 nM.
`Cc1ccc(Oc2ccc(Nc3ncnc4sc5c(c34)CCN(C(=O)/C=C/CN3CC4CCC3C4)C5)cc2C)cn1` (stereo not shown) [Compound 14] was tested, and the EC50 (EGFR; [1]) was < 100 nM and the EC50 (HER2) was < 100 nM.
With `Cc1ccc(Oc2ccc(Nc3ncnc4sc5c(c34)CCN(C(=O)/C=C/CN3CC4CC(C3)O4)C5)cc2C)cn1` [Compound 15] the EC50 (EGFR; [1]) was < 100 nM and the EC50 (HER2) was < 100 nM.
With `Cc1ccc(Oc2ccc(Nc3ncnc4sc5c(c34)CCN(C(=O)/C=C/CN3CC4CCC(C4)C3)C5)cc2C)cn1` [Compound 16, (E)-4-(3-azabicyclo[3.2.1]octan-3-yl)-1-(4-((3-methyl-4-((6-methylpyridin-3-yl)oxy)phenyl)amino)-5,8-dihydropyrido[4′,3′:4,5]thieno[2,3-d]pyrimidin-7(6H)-yl)but-2-en-1-one benzenesulfonate salt] the EC50 (EGFR) was 100 to 350 nM and the EC50 (HER2) was < 100 nM.
In the case of `Cc1ccc(Oc2ccc(Nc3ncnc4sc5c(c34)CCN(C(=O)/C=C/CN3CCOCC3)C5)cc2C)cn1` [Compound 17, (E)-1-(4-((3-Methyl-4-((6-methylpyridin-3-yl)oxy)phenyl)amino)-5,6-dihydropyrido[4′,3′:4,5]thieno[2,3-d]pyrimidin-7(8H)-yl)-4-morpholinobut-2-en-1-one], the EC50 (EGFR; [1]) is reported as 100 to 350 nM and the EC50 (HER2) is reported as < 100 nM.
In the case of `Cc1ccc(Oc2ccc(Nc3ncnc4sc5c(c34)CN(C(=O)/C=C/CN(C)C)CC5)cc2C)cn1` [Compound 108, (E)-4-(Dimethylamino)-1-(4-((3-methyl-4-((6-methylpyridin-3-yl)oxy)phenyl)amino)-7,8-dihydropyrido[3′,4′:4,5]thieno[2,3-d]pyrimidin-6(5H)-yl)but-2-en-1-one], the GI50 (Ba/F3 parental cells) is reported as 1 to 10 µM and the GI50 (Ba/F3 HER2YVMA cells) is reported as < 100 nM.
With `Cc1ccc(Oc2ccc(Nc3ncnc4sc5c(c34)CCN(C(=O)/C=C/CN3CC[C@H](F)C3)C5)cc2C)cn1` [Compound 124] the GI50 (Ba/F3 parental cells) was 1 to 10 µM and the GI50 (Ba/F3 HER2YVMA cells) was < 100 nM.
`Cc1cc(Nc2ncnc3sc4c(c23)CCN(C(=O)/C=C/CN(C)C)C4)ccc1Oc1ccn2ccnc2c1` [Compound 126, (E)-4-(dimethylamino)-1-(4-((4-(imidazo[1,2-a]pyridin-7-yloxy)-3-methylphenyl)amino)-5,8-dihydropyrido[4′,3′:4,5]thieno[2,3-d]pyrimidin-7(6H)-yl)but-2-en-1-one] was tested, and the GI50 (Ba/F3 parental cells) was 1 to 10 µM and the GI50 (Ba/F3 HER2YVMA cells) was < 100 nM.
Work on `Cc1nc2cc(Oc3ccc(Nc4ncnc5sc6c(c45)CCN(C(=O)/C=C/CN(C)C)C6)cc3C)ccn2n1` [Compound 127, (E)-4-(dimethylamino)-1-(4-((3-methyl-4-((2-methyl-[1,2,4]triazolo[1,5-a]pyridin-7-yl)oxy)phenyl)amino)-5,6-dihydropyrido[4′,3′:4,5]thieno[2,3-d]pyrimidin-7(8H)-yl)but-2-en-1-one] yielded a GI50 (Ba/F3 parental cells) of 1 to 10 µM and a GI50 (Ba/F3 HER2YVMA cells) of 100 to 1000 nM.
In the case of `COc1ccc(Oc2ccc(Nc3ncnc4sc5c(c34)CN(C(=O)/C=C/CN(C)C)C5)cc2C)cn1` [Compound 128, (E)-4-(dimethylamino)-1-(4-((4-((6-methoxypyridin-3-yl)oxy)-3-methylphenyl)amino)-5,7-dihydro-6H-pyrrolo[3′,4′:4,5]thieno[2,3-d]pyrimidin-6-yl)but-2-en-1-one], the GI50 (Ba/F3 parental cells) is reported as 1 to 10 µM, the EC50 (EGFR; [1]) is reported as > 1000 nM and the EC50 (HER2) is reported as < 100 nM. For the same compound, the GI50 (Ba/F3 HER2YVMA cells) was < 100 nM.
`Cc1ccc(Oc2ccc(Nc3ncnc4sc5c(c34)CN(C(=O)/C=C/CN(C)C)C5)cc2Cl)cn1` [Compound 129, (E)-1-(4-((3-Chloro-4-((6-methylpyridin-3-yl)oxy)phenyl)amino)-5H-pyrrolo[3′,4′:4,5]thieno[2,3-d]pyrimidin-6(7H)-yl)-4-(dimethylamino)but-2-en-1-one] was tested, and the EC50 (EGFR; [1]) was 100 to 350 nM, the EC50 (HER2) was < 100 nM and the GI50 (Ba/F3 HER2YVMA cells) was < 100 nM.
In the case of `Cc1cc(Nc2ncnc3sc4c(c23)CN(C(=O)/C=C/CN(C)C)C4)ccc1Oc1ccn2ncnc2c1` [Compound 130, (E)-1-(4-((4-([1,2,4]Triazolo[1,5-a]pyridin-7-yloxy)-3-methylphenyl)amino)-5H-pyrrolo[3′,4′:4,5]thieno[2,3-d]pyrimidin-6(7H)-yl)-4-(dimethylamino)but-2-en-1-one], the GI50 (Ba/F3 parental cells) is reported as 1 to 10 µM and the GI50 (Ba/F3 HER2YVMA cells) is reported as < 100 nM.
